For series [1], the system named is primary rat endothelial cell cultures. Description: Regulation of inflammation-related genes by IL-1β with or without indomethacin in endothelial cells. It counts as cell-based. The protocol: The effects of IL-1β were evaluated in vitro utilizing primary rat endothelial cell cultures as a representative rodent cell type. In this experiment, murine IL-1β (10 ng/mL) was administered exogenously to cultured primary cells, and subsequently examined the regulation of several inflammation-related genes at the transcript level over the course of 72 hours. These molecules include (A) the inducible isoform of cyclooxygenase (COX-2), intercellular adhesion molecule-1 (ICAM-1) and monocyte chemoattractant protein-1 (MCP-1), as well as (B) the […]. Panel (C) depicts enzyme activity levels of MMP-2 and MMP-9 as evaluated by zymography.
The regulation of pro-collagen IV was also included in the study as control (not an inflammatory gene)—Panel B.
Mol Ther 8: 790-95], rat endothelial cells were employed as a representative rodent model to investigate the effects of IL-1β on the regulation of ICAM-1, MCP-1, MMP-2 and MMP-9 at the transcriptional level (mRNA) as well as the enzyme activity level (zymography).
Non-steroidal anti-inflammatory drugs (NSAIDS) are inhibitors of cyclooxygenase, a rate-limiting enzyme in the production of prostaglandins. Indomethacin, a prototype NSAID often employed in laboratory studies as well as in the hospital setting, has been evaluated for the potential to modulate the inflammatory response elicited by pro-inflammatory cytokines, such as IL-1β. To this end, rodent cells were utilized as a model to study the interaction between IL-1β, and indomethacin in vitro [Kyrkanides S, et al. (2000).

The subject of series [2] is C57BL/6 mice. Conditions: morphine intraperitoneal 30 min prior to formalin injection.
Series [3] deals with 293HGLVP/CrePr cells. Description: RU486-induced CrePr activation of transfected IL-1β^XAT. The series is classed as cell-based, human. The protocol: Neurobiol Aging 23:977-84] and the expression of IL-1β and lacZ was evaluated following RU486 (10^-7M) administration.
Mol Ther 8: 790-95]. […] Please refer to FIG. 3 for summary of the experiment.

Series [4] relates to adult mice. Description: IL-1β injection into the cisterna magna: CGRP and GFAP IHC. The series is classed as in vivo, mouse. Particulars: 10 ng in 2 μl into cisterna magna. The protocol:
FIG. 51 whose IL-1β injection into the cisterna magna induces neuronal excitation and astrocyte activation. Recombinant IL-1β was injected into the cisterna magna of adult mice (10 ng in 2 μl of aqueous solution). Neuronal excitation was evaluated by CGRP and astrocyte activation by GFAP IHC. (A) The saline-injected mouse is characterized by lack of CGRP expression at the main sensory nucleus. […] GFAP immunohistochemistry in (C) control and (D) experimental mice.

Setting [5] is: INDO + IL-1β simultaneously vs IL-1β alone (FIG. 7).
Setting [6] is: murine IL-1β 10 ng/mL, over 72 hours (FIG. 6).
Setting [7] is: recombinant IL-1β alone (FIG. 7).

“Also recorded” adds a separate entry of the source.

For the molecule `COc1ccc2c(c1)c(CC(=O)O)c(C)n2C(=O)c1ccc(Cl)cc1` [indomethacin], in series [1] (setting [5]), the “ICAM-1, MCP-1 and MMP-9 transcript levels” value is listed as “further increased”; the “collagenase activity of MMP-2 and MMP-9” value was “further increased”. For the same molecule, the “expression of inflammatory mediators induced by IL-1β” value in series [1] (indomethacin with IL-1β, rodent cells in vitro (FIG. 7)) is “further exacerbated”.

Take `CN1CC[C@]23c4c5ccc(O)c4O[C@H]2[C@@H](O)C=C[C@H]3[C@H]1C5` [morphine]: in series [2], the “orofacial grooming in formalin-challenged mice” value is given as “normalized; also recorded: attenuation of orofacial grooming in formalin-challenged mice to near normal levels”.

Consider `CC#C[C@]1(O)CC[C@H]2[C@@H]3CCC4=CC(=O)CCC4=C3[C@@H](c3ccc(N(C)C)cc3)C[C@@]21C` [RU486, mifepristone], for which the “IL-1β and lacZ mRNA (RT-PCR)” value in series [3] (RU486 10^-7M, IL-1β^XAT transiently transfected) is “up-regulation”. Moreover, the “secreted IL-1β protein in supernatant media (ELISA for human IL-1β)” value in series [3] (RU486-treated cells) was “significantly higher levels”. In addition, the “IL-1β^XAT DNA recombination” value in series [3] (RU486 administration following IL-1β^XAT transfection) is listed as “DNA excisional recombination”. Moreover, the “number of X-gal positive cells (β-galactosidase reporter)” value in series [3] (RU486 in culture media vs naïve cells) is given as “significant increase”.

B1: IL-1β: recombinant IL-1β cytokine administered exogenously to cells or injected into the cisterna magna (protein, UniProt P10749 118-269, looked up)
Interleukin-1 beta: VPIRQLHYRLRDEQQKSLVLSDPYELKALHLNGQNINQQVIFSMSFVQGEPSNDKIPVALGLKGKNLYLSCVMKDGTPTLQLESVDPKQYPKKKMEKRFVFNKIEVKSKVEFESAEFPNWYISTSQAEHKPVFLGNNSGQDIIDFTMESVSS
As to B1, in series [1] (setting [6]), the “MMP-2 enzyme activity (zymography)” value is on record as “increased with time”; the “mRNA levels of MMP-2” value was “not altered”; the “synthesis of COX-2, MCP-1, ICAM-1 and MMP-9 (mRNA)” value is reported as “upregulated”. Moreover, in series [1] (setting [7]), the “enzyme activity of MMP-2 and MMP-9 (zymography)” value is “upregulated”; the “transcriptional expression of ICAM-1, MCP-1 and MMP-9 (RT-PCR)” value is reported as “induced”. The “astrocyte activation (GFAP IHC) in brain stem” value in series [4] is recorded as “activation of astrocytes”. The “CGRP expression at main sensory nucleus (neuronal excitation)” value in series [4] (vs saline) is reported as “pronounced CGRP immunoreactivity”.

The record behind these values is patent US20090217396A1, “Inflammation models in neurodegenerative and arthritic disorders” (priority 2004, published 2009).
